The test systems below were run with COCC[n+]1c2c(n(Cc3cnccn3)c1C)C(=O)c1ccccc1C2=O [YM155] (assay: area under dose-response curve of surviving fraction (unscaled, Aref=0) (surviving fraction x log10(nM)); higher = more resistant). Conditions: exposure time: 5 days; dose range 0.5-1000 nM.
Procedure, shortened: (§1)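 Tumour cell lines in 384-well plates were exposed for five days to eight inhibitor concentrations from 0.5 to 1000 nM. Viability was read by CellTiter-Glo luminescence, normalised to DMSO-only wells, in three screens per line. Dose-response survival curves were fitted to surviving fractions by 3-parameter logistic regression in the drc R package. Area under the curve is the unscaled activity area (Aref = 0) over log10 dose.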
MCF7 BREAST was tested, and the “area under dose-response curve” value was 1.18. With MDAMB134 BREAST the “area under dose-response curve” value was 2.43. NCIH441 LUNG was tested, and the “area under dose-response curve” value was 1.12. OS25HAL BONE was tested, and the “area under dose-response curve” value was 0.935. With HCC1954 BREAST the “area under dose-response curve” value was 1.4. For 22RV1 PROSTATE, the “area under dose-response curve” value was 1.58. MDAMB231 BREAST was tested, and the “area under dose-response curve” value was 0.671. With HCC38 BREAST the “area under dose-response curve” value was 1.05. With HU09 BONE the “area under dose-response curve” value was 2.13. For SAOS2 BONE, the “area under dose-response curve” value was 1.05. In the case of MDAMB436 BREAST, the “area under dose-response curve” value is reported as 1.42. 93VU HEADNECK was tested, and the “area under dose-response curve” value was 2.62. With KPD BONE the “area under dose-response curve” value was 1.1. In the case of SYO1 SYNOVIAL, the “area under dose-response curve” value is reported as 1.25. CAL120 BREAST was tested, and the “area under dose-response curve” value was 0.732. For HCC1395 BREAST, the “area under dose-response curve” value was 2.28. With SUM149.B1*.S BREAST the “area under dose-response curve” value was 1.66.

Each test system was assayed with CC(=O)O[C@H]1C(=O)[C@@]2(C)[C@H]([C@H](OC(=O)c3ccccc3)[C@]3(O)C[C@H](OC(=O)[C@H](O)[C@@H](NC(=O)c4ccccc4)c4ccccc4)C(C)=C1C3(C)C)[C@]1(OC(C)=O)CO[C@@H]1C[C@@H]2O [PACLITAXEL] in the same assay as above. Conditions: exposure time: 5 days; dose range 0.5-1000 nM.
Procedure, shortened: as §1
In the case of C33A CERVIX, the “area under dose-response curve” value is reported as 0.98. With PCI30 HEADNECK the “area under dose-response curve” value was 0.529. For HUO3N1 BONE, the “area under dose-response curve” value was 0.938. With T47D BREAST the “area under dose-response curve” value was 1.04. HELA CERVIX was tested, and the “area under dose-response curve” value was 0.718. For NY BONE, the “area under dose-response curve” value was 0.337. For CASKI CERVIX, the “area under dose-response curve” value was 0.492. In the case of COLO320DM LARGE INTESTINE, the “area under dose-response curve” value is reported as 2.1. With MDAMB361 BREAST the “area under dose-response curve” value was 2.36. HOSMNG BONE was tested, and the “area under dose-response curve” value was 1.85. For A549 LUNG, the “area under dose-response curve” value was 1.32. For CAL51 BREAST, the “area under dose-response curve” value was 0.546. With OSHN BONE the “area under dose-response curve” value was 0.555. With MCF7 BREAST the “area under dose-response curve” value was 1.43. In the case of MDAMB134 BREAST, the “area under dose-response curve” value is reported as 2.33. For NCIH441 LUNG, the “area under dose-response curve” value was 1.56. OS25HAL BONE was tested, and the “area under dose-response curve” value was 1.01. HCC1954 BREAST was tested, and the “area under dose-response curve” value was 0.63. For 22RV1 PROSTATE, the “area under dose-response curve” value was 0.962. For MDAMB231 BREAST, the “area under dose-response curve” value was 0.557. With HCC38 BREAST the “area under dose-response curve” value was 0.609. In the case of HU09 BONE, the “area under dose-response curve” value is reported as 0.426. SAOS2 BONE was tested, and the “area under dose-response curve” value was 1.1. In the case of MDAMB436 BREAST, the “area under dose-response curve” value is reported as 1.01. In the case of 93VU HEADNECK, the “area under dose-response curve” value is reported as 1.04. In the case of KPD BONE, the “area under dose-response curve” value is reported as 1.47. With SYO1 SYNOVIAL the “area under dose-response curve” value was 0.539. In the case of CAL120 BREAST, the “area under dose-response curve” value is reported as 0.641. For HCC1395 BREAST, the “area under dose-response curve” value was 1.76. For SUM149.B1*.S BREAST, the “area under dose-response curve” value was 1.21.

Each test system was assayed with C[C@]1(O)C[C@@H](c2nc(-c3ccc4ccc(-c5ccccc5)nc4c3)c3c(N)nccn32)C1 [OSI-906] in the same assay as above. Conditions: exposure time: 5 days; dose range 0.5-1000 nM.
Procedure, shortened: as §1
With C33A CERVIX the “area under dose-response curve” value was 3.42. In the case of PCI30 HEADNECK, the “area under dose-response curve” value is reported as 3.26. With HUO3N1 BONE the “area under dose-response curve” value was 2.99. For T47D BREAST, the “area under dose-response curve” value was 3.09. In the case of HELA CERVIX, the “area under dose-response curve” value is reported as 3.27. In the case of NY BONE, the “area under dose-response curve” value is reported as 3.15. For CASKI CERVIX, the “area under dose-response curve” value was 2.98. In the case of COLO320DM LARGE INTESTINE, the “area under dose-response curve” value is reported as 3. For MDAMB361 BREAST, the “area under dose-response curve” value was 2.51. With HOSMNG BONE the “area under dose-response curve” value was 3.13. For A549 LUNG, the “area under dose-response curve” value was 3.1. With CAL51 BREAST the “area under dose-response curve” value was 3.16. For OSHN BONE, the “area under dose-response curve” value was 2.89. For MCF7 BREAST, the “area under dose-response curve” value was 2.69. MDAMB134 BREAST was tested, and the “area under dose-response curve” value was 2.32. With NCIH441 LUNG the “area under dose-response curve” value was 3.21. For OS25HAL BONE, the “area under dose-response curve” value was 2.57. With HCC1954 BREAST the “area under dose-response curve” value was 1.26. 22RV1 PROSTATE was tested, and the “area under dose-response curve” value was 3.1. With MDAMB231 BREAST the “area under dose-response curve” value was 3.07. With HCC38 BREAST the “area under dose-response curve” value was 3.25. For HU09 BONE, the “area under dose-response curve” value was 2.66. SAOS2 BONE was tested, and the “area under dose-response curve” value was 2.83. In the case of MDAMB436 BREAST, the “area under dose-response curve” value is reported as 2.93. For 93VU HEADNECK, the “area under dose-response curve” value was 2.69. KPD BONE was tested, and the “area under dose-response curve” value was 2.38. With SYO1 SYNOVIAL the “area under dose-response curve” value was 2.64. In the case of CAL120 BREAST, the “area under dose-response curve” value is reported as 3. In the case of SUM149.B1*.S BREAST, the “area under dose-response curve” value is reported as 2.99.

Each test system was assayed with CC(=O)NCC(=O)N1[C@@H]2CC[C@H]1c1ccc(Nc3ncc(C(F)(F)F)c(NC4CCC4)n3)cc12 in the same assay as above. Conditions: exposure time: 5 days; dose range 0.5-1000 nM.
Procedure, shortened: as §1
With C33A CERVIX the “area under dose-response curve” value was 2.24. With PCI30 HEADNECK the “area under dose-response curve” value was 2.81. HUO3N1 BONE was tested, and the “area under dose-response curve” value was 3.12. In the case of T47D BREAST, the “area under dose-response curve” value is reported as 3.44. With HELA CERVIX the “area under dose-response curve” value was 2.21. With NY BONE the “area under dose-response curve” value was 2.51. For CASKI CERVIX, the “area under dose-response curve” value was 2.28. With COLO320DM LARGE INTESTINE the “area under dose-response curve” value was 2.35. In the case of MDAMB361 BREAST, the “area under dose-response curve” value is reported as 3.12. For HOSMNG BONE, the “area under dose-response curve” value was 2.83. For A549 LUNG, the “area under dose-response curve” value was 2.54. With CAL51 BREAST the “area under dose-response curve” value was 2.15. In the case of OSHN BONE, the “area under dose-response curve” value is reported as 2.43. With MCF7 BREAST the “area under dose-response curve” value was 2.53. In the case of MDAMB134 BREAST, the “area under dose-response curve” value is reported as 3.57. With NCIH441 LUNG the “area under dose-response curve” value was 2.94. In the case of OS25HAL BONE, the “area under dose-response curve” value is reported as 2.55. HCC1954 BREAST was tested, and the “area under dose-response curve” value was 3.09. With 22RV1 PROSTATE the “area under dose-response curve” value was 2.6. MDAMB231 BREAST was tested, and the “area under dose-response curve” value was 2.51. In the case of HCC38 BREAST, the “area under dose-response curve” value is reported as 2.71. HU09 BONE was tested, and the “area under dose-response curve” value was 2.44. For SAOS2 BONE, the “area under dose-response curve” value was 2.47. With MDAMB436 BREAST the “area under dose-response curve” value was 2.63. 93VU HEADNECK was tested, and the “area under dose-response curve” value was 2.61. In the case of KPD BONE, the “area under dose-response curve” value is reported as 2.67. For SYO1 SYNOVIAL, the “area under dose-response curve” value was 1.98. With CAL120 BREAST the “area under dose-response curve” value was 2.64. HCC1395 BREAST was tested, and the “area under dose-response curve” value was 3.19. With SUM149.B1*.S BREAST the “area under dose-response curve” value was 3.06.

What follows are test systems tested with O=C(O)C1(C(=O)O)CCC1.[NH2-].[NH2-].[Pt+2] [CARBOPLATIN] in the same assay as above. Conditions: exposure time: 5 days; dose range 0.5-1000 nM.
Procedure, shortened: as §1
For C33A CERVIX, the “area under dose-response curve” value was 4.12. In the case of PCI30 HEADNECK, the “area under dose-response curve” value is reported as 3.57. In the case of HUO3N1 BONE, the “area under dose-response curve” value is reported as 3.59. For T47D BREAST, the “area under dose-response curve” value was 3.42. In the case of HELA CERVIX, the “area under dose-response curve” value is reported as 3.53. For NY BONE, the “area under dose-response curve” value was 3.46. For CASKI CERVIX, the “area under dose-response curve” value was 3.19. For COLO320DM LARGE INTESTINE, the “area under dose-response curve” value was 4.1. For MDAMB361 BREAST, the “area under dose-response curve” value was 2.64. With HOSMNG BONE the “area under dose-response curve” value was 3.65. With A549 LUNG the “area under dose-response curve” value was 3.54. CAL51 BREAST was tested, and the “area under dose-response curve” value was 3.33. With OSHN BONE the “area under dose-response curve” value was 3.65. With MCF7 BREAST the “area under dose-response curve” value was 3.08. MDAMB134 BREAST was tested, and the “area under dose-response curve” value was 3.15. In the case of NCIH441 LUNG, the “area under dose-response curve” value is reported as 3.51. For OS25HAL BONE, the “area under dose-response curve” value was 3.56. With HCC1954 BREAST the “area under dose-response curve” value was 3.62. In the case of 22RV1 PROSTATE, the “area under dose-response curve” value is reported as 3.48. With MDAMB231 BREAST the “area under dose-response curve” value was 3.32.

— the supplement of paper PMC6045584
